In patent publication US20250368649A1, “TETRAHYDROPYRIDOPYRIMIDINE PAN-KRAS INHIBITORS” (Mirati Therapeutics, Inc., priority 2022, published 2025):

Key:
ASPC1 cells = assay: Inhibition of KRas-mediated phosphorylation of ERK (Cisbio HTRF pERK), ASPC1 cells; type: cell-based; settings: Homo sapiens, AsPC-1 cells; for IC50: ASPC1, 3 h, 3 hr compound incubation, Cisbio pERK HTRF; for inhibition at 0.1 µM: ASPC1, single point at 100 nM, 3 hrs compound incubation
KRas G12R = KRas G12R (Homo sapiens, UniProt P01116, G12R); assay: biochemical; settings: Binding to KRas (IC50 nM) G12R, TR-FRET displacement, KRas G12R
H460 cells = assay: Inhibition of KRas-mediated phosphorylation of ERK (Cisbio HTRF pERK), H460 cells; type: cell-based; settings: Homo sapiens, NCI-H460, single point at 100 nM, 3 hrs compound incubation
HCT116 cells = assay: Inhibition of KRas-mediated phosphorylation of ERK (Cisbio HTRF pERK), HCT116 cells; type: cell-based; settings: Homo sapiens, HCT-116, single point at 100 nM, 3 hrs compound incubation
A549 cells = assay: Inhibition of KRas-mediated phosphorylation of ERK (Cisbio HTRF pERK), A549 cells; type: cell-based; settings: Homo sapiens, single point at 100 nM, 3 hrs compound incubation
KRas G12V = KRas G12V (Homo sapiens, UniProt P01116, G12V); assay: biochemical; settings: Binding to KRas (IC50 nM) G12V, TR-FRET displacement, KRas G12V
H727 cells = assay: Inhibition of KRas-mediated phosphorylation of ERK (Cisbio HTRF pERK), H727 cells; type: cell-based; settings: Homo sapiens; for IC50: NCI-H727, 3 h, 3 hr compound incubation, Cisbio pERK HTRF; for inhibition at 0.1 µM: NCI-H727, single point at 100 nM, 3 hrs compound incubation
H358 cells = assay: Inhibition of KRas-mediated phosphorylation of ERK (Cisbio HTRF pERK), H358 cells; type: cell-based; settings: Homo sapiens, NCI-H358, single point at 100 nM, 3 hrs compound incubation
KRas G12D = KRas G12D (Homo sapiens, UniProt P01116, G12D); assay: biochemical; settings: Binding to KRas (IC50 nM) G12D, TR-FRET displacement, KRas G12D
Chain of KRas G12D (P01116 1-169 isoform P01116-2 G12D): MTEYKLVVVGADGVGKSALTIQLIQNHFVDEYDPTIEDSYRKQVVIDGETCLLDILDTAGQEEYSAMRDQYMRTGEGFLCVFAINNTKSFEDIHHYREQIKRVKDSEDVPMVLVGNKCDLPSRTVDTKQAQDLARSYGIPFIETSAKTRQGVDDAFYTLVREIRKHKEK

Chain of KRas G12R (P01116 1-169 isoform P01116-2 G12R): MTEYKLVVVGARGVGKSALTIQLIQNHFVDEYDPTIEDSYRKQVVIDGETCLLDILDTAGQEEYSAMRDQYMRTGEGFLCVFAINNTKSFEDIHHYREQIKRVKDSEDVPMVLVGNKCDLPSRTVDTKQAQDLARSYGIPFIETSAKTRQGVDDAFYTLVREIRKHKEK
Chain of KRas G12V (P01116 1-169 isoform P01116-2 G12V): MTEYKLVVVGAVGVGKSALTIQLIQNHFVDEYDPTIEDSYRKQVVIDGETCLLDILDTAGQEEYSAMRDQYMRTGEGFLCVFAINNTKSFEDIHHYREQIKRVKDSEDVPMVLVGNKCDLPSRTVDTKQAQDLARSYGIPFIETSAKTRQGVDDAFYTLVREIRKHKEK

Row | Structure (SMILES) | IC50 (ASPC1 cells) [nM] | IC50 (KRas G12R) [nM] | IC50 (KRas G12V) [nM] | IC50 (H727 cells) [nM] | IC50 (KRas G12D) [nM] | inhibition at 0.1 µM (H460 cells) [%] | inhibition at 0.1 µM (HCT116 cells) [%] | inhibition at 0.1 µM (A549 cells) [%] | inhibition at 0.1 µM (H358 cells) [%] | inhibition at 0.1 µM (ASPC1 cells) [%] | inhibition at 0.1 µM (H727 cells) [%]
1 | CCc1c(F)ccc2cc(O)cc(N3CCc4c(nc(OC[C@@]56CCCN5C[C@H](F)C6)nc4N4CCCCC(CC(=O)NC)C4)C3)c12 (stereo partly drawn) [Example 346, 2-(1-(7-(8-ethyl-7-fluoro-3-hydroxynaphthalen-1-yl)-2-(((2R,7aS)-2-fluorohexahydro-1H-pyrrolizin-7a-yl)methoxy)-5,6,7,8-tetrahydropyrido[3,4-d]pyrimidin-4-yl)azepan-3-yl)-N-methylacetamide] | 1220 | < 2 | 4 | 822 | 6 | 9 | 7 | 19 | 11 | – | –
2 | CCc1c(F)ccc2cc(O)cc(N3CCc4c(nc(OC[C@@]56CCCN5C[C@H](F)C6)nc4N4CCCn5nc(CS(=O)(=O)N(C)C)cc5C4)C3)c12 [Example 494, 1-(5-(7-(8-ethyl-7-fluoro-3-hydroxynaphthalen-1-yl)-2-(((2R,7aS)-2-fluorohexahydro-1H-pyrrolizin-7a-yl)methoxy)-5,6,7,8-tetrahydropyrido[3,4-d]pyrimidin-4-yl)-5,6,7,8-tetrahydro-4H-pyrazolo[1,5-a][1,4]diazepin-2-yl)-N,N-dimethylmethanesulfonamide] | 749 | 24 | 26 | 2580 | 12 | 4 | 4 | 14 | 8 | -4 | 13
3 | CCc1c(F)ccc2cc(O)cc(N3CCc4c(nc(OC[C@@]56CCCN5C[C@H](F)C6)nc4N4CCCn5nc(N(C)S(=O)(=O)C(C)C)cc5C4)C3)c12 [Example 321, N-(5-(7-(8-ethyl-7-fluoro-3-hydroxynaphthalen-1-yl)-2-(((2R,7aS)-2-fluorohexahydro-1H-pyrrolizin-7a-yl)methoxy)-5,6,7,8-tetrahydropyrido[3,4-d]pyrimidin-4-yl)-5,6,7,8-tetrahydro-4H-pyrazolo[1,5-a][1,4]diazepin-2-yl)-N-methylpropane-2-sulfonamide] | 1900 | 146 | 171 | 1920 | 69 | 16 | 5 | 14 | 7 | – | –
4 | CCc1c(F)ccc2cc(O)cc(N3CCc4c(nc(N5CC(N(C)C)C5)nc4N4CCCC5(C4)NC(=O)NC5=O)C3)c12 (centres unmarked) [Example 433, 7-(2-(3-(dimethylamino)azetidin-1-yl)-7-(8-ethyl-7-fluoro-3-hydroxynaphthalen-1-yl)-5,6,7,8-tetrahydropyrido[3,4-d]pyrimidin-4-yl)-1,3,7-triazaspiro[4.5]decane-2,4-dione] | 2610 | 11 | 10 | 1160 | 26 | 6 | 1 | 9 | -7 | -5 | 0
5 | CCc1c(F)ccc2cc(O)cc(N3CCc4c(nc(OC[C@@]56CCCN5C[C@H](F)C6)nc4N4CCCCC(COCC(N)=O)C4)C3)c12 (stereo partly drawn) [Example 492, 2-((1-(7-(8-ethyl-7-fluoro-3-hydroxynaphthalen-1-yl)-2-(((2R,7aS)-2-fluorohexahydro-1H-pyrrolizin-7a-yl)methoxy)-5,6,7,8-tetrahydropyrido[3,4-d]pyrimidin-4-yl)azepan-3-yl)methoxy)acetamide] | 9040 | 6 | 7 | 3940 | 11 | 6 | 23 | -24 | -3 | -11 | 0
6 | CCc1c(F)ccc2cc(O)cc(N3CCc4c(nc(OC[C@@]56CCCN5C[C@H](F)C6)nc4N4CCCn5nc(CN(C)S(=O)(=O)NC)cc5C4)C3)c12 [Example 237, 7-(8-ethyl-7-fluoro-3-hydroxy-1-naphthyl)-2-(((2R,7aS)-2-fluorotetrahydro-1H-pyrrolizin-7a(5H)-yl)methoxy)-4-(2-((methylsulfamoyl)methylamino)methyl-7,8-dihydro-4H-pyrazolo[1,5-a][1,4]diazepin-5(6H)-yl)-6,8-dihydro-5H-pyrido[3,4-d]pyrimidine] | 639 | 19 | 13 | 1640 | 7 | -16 | 5 | 30 | 7 | 10 | 22
7 | CCc1c(F)ccc2cc(O)cc(N3CCc4c(nc(OC[C@@]56CCCN5C[C@H](F)C6)nc4N4CCCC5(C4)NC(=O)NC5=S)C3)c12 (stereo partly drawn) [Example 250, 7-(7-(8-ethyl-7-fluoro-3-hydroxynaphthalen-1-yl)-2-(((2R,7aS)-2-fluorohexahydro-1H-pyrrolizin-7a-yl)methoxy)-5,6,7,8-tetrahydropyrido[3,4-d]pyrimidin-4-yl)-4-thioxo-1,3,7-triazaspiro[4.5]decan-2-one] | 283 | 9 | 10 | 763 | 19 | 36 | 26 | 36 | 34 | -2 | 25
8 | Oc1cc(N2CCc3c(nc(OC[C@@]45CCCN4C[C@H](F)C5)nc3N3CCCC4(CCO4)C3)C2)c2c(Cl)c(F)ccc2c1 (stereo partly drawn) [Example 463, 5-chloro-6-fluoro-4-(2-(((2R,7aS)-2-fluorohexahydro-1H-pyrrolizin-7a-yl)methoxy)-4-(1-oxa-6-azaspiro[3.5]nonan-6-yl)-5,6-dihydropyrido[3,4-d]pyrimidin-7(8H)-yl)naphthalen-2-ol] | 615 | < 2 | < 2 | 597 | < 2 | 2 | -3 | 18 | -13 | 15 | 20

Continued, in another order:

Row | IC50 (ASPC1 cells) [nM] | IC50 (KRas G12R) [nM] | IC50 (KRas G12V) [nM] | IC50 (H727 cells) [nM] | IC50 (KRas G12D) [nM] | Structure (SMILES) | inhibition at 0.1 µM (H460 cells) [%] | inhibition at 0.1 µM (HCT116 cells) [%] | inhibition at 0.1 µM (A549 cells) [%] | inhibition at 0.1 µM (H358 cells) [%] | inhibition at 0.1 µM (ASPC1 cells) [%] | inhibition at 0.1 µM (H727 cells) [%]
9 | 1950 | 7 | 11 | 1740 | 23 | CCc1c(F)ccc2cc(O)cc(N3CCc4c(nc(OC[C@@]56CCCN5C[C@H](F)C6)nc4N4CCCCC(COC(C)C(=O)N(C)C)C4)C3)c12 (stereo partly drawn) [Example 252, 2-((1-(7-(8-ethyl-7-fluoro-3-hydroxynaphthalen-1-yl)-2-(((2R,7aS)-2-fluorohexahydro-1H-pyrrolizin-7a-yl)methoxy)-5,6,7,8-tetrahydropyrido[3,4-d]pyrimidin-4-yl)azepan-3-yl)methoxy)-N,N-dimethylpropanamide] | 3 | 14 | 16 | -7 | -5 | 0
10 | 803 | 7 | 3 | 406 | 10 | CCc1c(F)ccc2cc(O)cc(N3CCc4c(nc(OC[C@@]56CCCN5C[C@H](F)C6)nc4N4CCCCC(C(=O)NC)C4)C3)c12 (stereo partly drawn) [Example 314, 1-(7-(8-ethyl-7-fluoro-3-hydroxynaphthalen-1-yl)-2-(((2R,7aS)-2-fluorohexahydro-1H-pyrrolizin-7a-yl)methoxy)-5,6,7,8-tetrahydropyrido[3,4-d]pyrimidin-4-yl)-N-methylazepane-3-carboxamide] | 13 | 4 | 3 | 0 | – | –
11 | 2400 | 25 | 7 | 747 | 38 | CCc1c(F)ccc2cc(O)cc(N3CCc4c(nc(OC[C@@]56CCCN5C[C@H](F)C6)nc4N4CCCCC(C(=O)N(C)C)C4)C3)c12 (stereo partly drawn) [Example 313, 1-(7-(8-ethyl-7-fluoro-3-hydroxynaphthalen-1-yl)-2-(((2R,7aS)-2-fluorohexahydro-1H-pyrrolizin-7a-yl)methoxy)-5,6,7,8-tetrahydropyrido[3,4-d]pyrimidin-4-yl)-N,N-dimethylazepane-3-carboxamide] | 31 | 2 | 7 | 8 | – | –
12 | 1300 | 5 | 3 | 681 | 9 | CCc1c(F)ccc2cc(O)cc(N3CCc4c(nc(OC[C@@]56CCCN5C[C@H](F)C6)nc4N4CCCCC(C(N)=O)C4)C3)c12 (stereo partly drawn) [Example 315, 1-(7-(8-ethyl-7-fluoro-3-hydroxynaphthalen-1-yl)-2-(((2R,7aS)-2-fluorohexahydro-1H-pyrrolizin-7a-yl)methoxy)-5,6,7,8-tetrahydropyrido[3,4-d]pyrimidin-4-yl)azepane-3-carboxamide] | 4 | 2 | -26 | 11 | – | –
